Source: ChEMBL document CHEMBL4000174, “Synthesis and antitumor activity of novel substituted uracil-1'(N)-acetic acid ester derivatives of 20(S)-camptothecins” (Eur J Med Chem, 2017)
Calls of active or inactive are those of the source. No cut-off for these calls is given here.

Legend:
[1] = test system: A549; experiment: Antiproliferative activity against human A549 cells after 96 hrs by MTT assay; assay type: functional, cell-based; conditions: A549, 96 h
[2] = test system: Mus musculus; experiment: Toxicity in Kunming mouse implanted with mouse H22 cell assessed as survival at 40 mg/kg, ip administered on day 1 and day 5; assay type: organism-based; conditions: in vivo
[3] = test system: HCT-8; experiment: Antiproliferative activity against human HCT8 cells after 96 hrs by MTT assay; assay type: functional, cell-based; conditions: HCT-8, 96 h
[4] = test system: A2780; experiment: Antiproliferative activity against human A2780 cells after 96 hrs by MTT assay; assay type: functional, cell-based; conditions: A2780, 96 h
[5] = test system: BGC-823; experiment: Antiproliferative activity against human BGC823 cells after 96 hrs by MTT assay; assay type: functional, cell-based; conditions: BGC-823, 96 h
[6] = test system: Mus musculus; experiment: Toxicity in Kunming mouse implanted with mouse H22 cells assessed as body weight at 40 mg/kg, ip administered on day 1 and day 5 (reference value: 32.5 g); assay type: organism-based; conditions: in vivo
[7] = test system: Bel-7402; experiment: Antiproliferative activity against human Bel7402 cells after 96 hrs by MTT assay; assay type: functional, cell-based; conditions: Bel-7402, 96 h
[8] = test system: H22; experiment: Antitumor activity against mouse H22 cells implanted in Kunming mouse assessed as tumor growth inhibition at 40 mg/kg, ip administered on day 1 and day 5 relative to control relative to control; assay type: functional; conditions: read-out: TGI
[9] = test system: A549; experiment: Cell cycle arrest in human A549 cells assessed as accumulation at G0/G1 phase at 25 nM after 24 hrs by propidium iodide staining based flow cytometry (reference value: 58.84%); assay type: functional
[10] = test system: Mus musculus; experiment: Antitumor activity in BALB/c nude mouse xenografted with human Bel7402 cells assessed as tumor volume at 5 mg/kg, ip administered once in a week for two weeks starting from 6 days post tumor transplantation measured every 3 days for 21 days (reference value: […]); conditions: in vivo, 504 h
[11] = test system: A549; experiment: Cell cycle arrest in human A549 cells assessed as accumulation at S phase at 75 nM after 24 hrs by propidium iodide staining based flow cytometry (reference value: 32.80%); assay type: functional
[12] = test system: A549; experiment: Cell cycle arrest in human A549 cells assessed as accumulation at G2/M phase at 8 nM after 24 hrs by propidium iodide staining based flow cytometry (reference value: 8.36%); assay type: functional
[13] = test system: Bel-7402; experiment: Antitumor activity against human Bel7402 cells xenografted in BALB/c nude mouse assessed as tumor volume at 5 mg/kg, ip administered once in a week for two weeks starting from 6 days post tumor transplantation measured 27 to 30 days post tumor transplantation relative to control; assay type: functional
[14] = test system: A549; experiment: Cell cycle arrest in human A549 cells assessed as accumulation at G0/G1 phase at 75 nM after 24 hrs by propidium iodide staining based flow cytometry (reference value: 58.84%); assay type: functional
[15] = test system: Mus musculus; experiment: Toxicity in BALB/c nude mouse xenografted with human Bel7402 cells assessed as body weight at 5 mg/kg, ip administered once in a week for two weeks starting from 6 days post tumor transplantation measured every 3 days for 21 days (reference value: 14.5 g); assay type: organism-based; conditions: in vivo, 504 h
[16] = test system: Escherichia coli; experiment: Inhibition of Escherichia coli topoisomerase 1-mediated relaxation of supercoiled Pcmv-6 plasmid DNA at 1 to 50 uM after 30 mins by ethidium bromide staining based agarose gel electrophoretic analysis
[17] = test system: A549; experiment: Cell cycle arrest in human A549 cells assessed as accumulation at G0/G1 phase at 8 nM after 24 hrs by propidium iodide staining based flow cytometry (reference value: 58.84%); assay type: functional
[18] = test system: Bel-7402; experiment: Antitumor activity against human Bel7402 cells xenografted in BALB/c nude mouse assessed as tumor growth inhibition at 5 mg/kg, ip administered once in a week for two weeks starting from 6 days post tumor transplantation measured 27 to 30 days post tumor transplantation relative to control; assay type: functional; conditions: Bel-7402, ip, read-out: TGI
[19] = test system: A549; experiment: Cell cycle arrest in human A549 cells assessed as accumulation at G2/M phase at 25 nM after 24 hrs by propidium iodide staining based flow cytometry (reference value: 8.36%); assay type: functional
[20] = test system: A549; experiment: Cell cycle arrest in human A549 cells assessed as accumulation at S phase at 8 nM after 24 hrs by propidium iodide staining based flow cytometry (reference value: 32.80%); assay type: functional
[21] = test system: A549; experiment: Cell cycle arrest in human A549 cells assessed as accumulation at G2/M phase at 75 nM after 24 hrs by propidium iodide staining based flow cytometry (reference value: 8.36%); assay type: functional
[22] = test system: A549; experiment: Cell cycle arrest in human A549 cells assessed as accumulation at S phase at 25 nM after 24 hrs by propidium iodide staining based flow cytometry (reference value: 32.80%); assay type: functional
[23] = test system: Mus musculus; experiment: Toxicity in BALB/c nude mouse xenografted with human BGC823 cells assessed as mouse survival at 50 mg/kg, ip administered once in a week for two weeks starting from 6 days post tumor transplantation; assay type: organism-based; conditions: in vivo, 144 h
[24] = test system: Mus musculus; experiment: Toxicity in BALB/c nude mouse xenografted with human BGC823 cells assessed as body weight at 50 mg/kg, ip administered once in a week for two weeks starting from 6 days post tumor transplantation and measured every 3 days during compound dosing for 15 days (reference value: 23.6 g); assay type: organism-based; conditions: in vivo, 360 h
[25] = test system: BGC-823; experiment: Antitumor activity against human BGC823 cells xenografted in BALB/c nude mouse assessed as tumor growth inhibition at 50 mg/kg, ip administered once in a week for two weeks starting from 6 days post tumor transplantation measured 27 to 30 days post tumor transplantation relative to control; assay type: functional; conditions: BGC-823, ip, read-out: TGI

Compound | IC50 [1] [µM] | IC50 [3] [µM] | IC50 [4] [µM] | IC50 [5] [µM] | IC50 [7] [µM] | also measured
CC[C@@]1(OC(=O)Cn2ccc(=O)[nH]c2=O)C(=O)OCc2c1cc1n(c2=O)Cc2cc3c([N+](=O)[O-])cccc3nc2-1 | 0.051 | 0.014 | 0.073 | 0.017 | 0.018 | Activity [2]: Non-Toxic; Activity [6]: 32 g; inhibition in vivo at 40 mg/kg [8]: 11%
CC[C@@]1(OC(=O)Cn2cc(I)c(=O)[nH]c2=O)C(=O)OCc2c1cc1n(c2=O)Cc2cc3ccccc3nc2-1 | 6.4 | 0.957 | 0.75 | 7.89 | 3.28 | –
CC[C@@]1(OC(=O)Cn2cc(Br)c(=O)[nH]c2=O)C(=O)OCc2c1cc1n(c2=O)Cc2cc3c([N+](=O)[O-])cccc3nc2-1 | 0.09 | 0.013 | 0.183 | 0.015 | 0.013 | –
CC[C@@]1(OC(=O)Cn2ccc(=O)[nH]c2=O)C(=O)OCc2c1cc1n(c2=O)Cc2cc3ccccc3nc2-1 | 0.046 | 0.014 | 0.16 | 0.017 | 0.018 | –
CC[C@@]1(O)C(=O)OCc2c1cc1n(c2=O)Cc2cc3c(CN(C)C)c(O)ccc3nc2-1 [TOPOTECAN] | 0.007 | 0.022 | 0.078 | 0.078 | 0.1 | Activity [9]: 55.73%; tumor volume [10]: 302 mm³; Activity [11]: 23.36%; Activity [12]: 11.71%; T/C [13]: 58.8%; Activity [14]: 43.81%; Activity [15]: Non-Toxic; inhibition [16]: Active; Activity [17]: 53.22%; inhibition in vivo at 5 mg/kg [18]: 45.5%; Activity [19]: 12.83%; Activity [20]: 35.07%; Activity [21]: 32.83%; Activity [22]: 31.44%
CC[C@@]1(OC(=O)Cn2cc(Cl)c(=O)[nH]c2=O)C(=O)OCc2c1cc1n(c2=O)Cc2cc3c([N+](=O)[O-])cccc3nc2-1 | 0.075 | 0.013 | 0.221 | 0.017 | 0.016 | –
CC[C@@]1(OC(=O)Cn2cc(Br)c(=O)[nH]c2=O)C(=O)OCc2c1cc1n(c2=O)Cc2cc3ccccc3nc2-1 | 0.048 | 0.006 | 0.16 | 0.016 | 0.012 | Activity [2]: Non-Toxic; Activity [6]: 32.1 g; inhibition in vivo at 40 mg/kg [8]: 6.39%
CCc1c2c(nc3ccccc13)-c1cc3c(c(=O)n1C2)COC(=O)[C@@]3(CC)OC(=O)Cn1cc(Br)c(=O)[nH]c1=O | 0.088 | < 0.002 | 0.182 | 0.031 | 0.012 | –
CCc1c2c(nc3ccc(OC(=O)N4CCC(N5CCCCC5)CC4)cc13)-c1cc3c(c(=O)n1C2)COC(=O)[C@]3(O)CC [IRINOTECAN] | – | – | – | – | – | Activity [23]: Non-Toxic; Activity [24]: 20.5 g; inhibition in vivo at 50 mg/kg [25]: 94.1%
